tested on: pentosidine formation; test: Inhibitory activity on pentosidine formation, samples incubated with BSA and arabinose; type: biochemical; details: 5 mM drug; incubated with BSA and arabinose instead of patient plasma
Method: Plasma was collected from hemodialysis patients prior to dialysis with the patients' consent, and the plasma was filtered and sterilized. To the plasma (450 μL) was added solutions of TM-2002 in dimethylsulfoxide (50 μL) (final concentrations: 0.8, 2.0, and 5.0 mM), and the mixtures were incubated for 1 week at 37° C. The levels of the pentosidine formation were measured.
Pentosidine was measured as follows. To each sample (50 μL) after incubation was added an equal volume of 10% trichloroacetic acid, and the mixture was subsequently centrifuged at 5,000 g for 5 minutes. After the supernatant was removed, the pellet was washed with 5% trichloroacetic acid (300 μL). The pellet was dried under reduced pressure, and subsequently hydrolyzed in a 6N HCl solution (100 μL) under a nitrogen atmosphere for 16 hours at 110° C. To the acid hydrolysate was then added 5N NaOH (100 μL) and 0.5 M phosphate buffer (pH 7.4) (200 μL); the mixture was subsequently filtered through a micropore filter with 0.5 μm pores and diluted with PBS. The concentration of the released pentosidine was measured by reverse-phase HPLC using a fluorescence detector (RF-10A, Shimadzu Corporation) (Miyata, T. et al.; Proc. Natl. Acad. Sci. USA, Vol. 93, p. 2353-2358, 1996). The effluent was monitored at the excitation/emission wavelength of 335/385 nm. Synthetic pentosidine was used as the reference material. The detection limit of pentosidine was 0.1 pmol/mg protein.
(2) Other edaravone analogues (Compounds (1) or (2)) were investigated for their inhibitory activities on pentosidine formation in the same manner as in Section (1) above, except that the samples were incubated with BSA and arabinose instead of the patient plasma. In the tables, “-” means that the test was not conducted.

Going from `CC1=NN(c2ccccc2)C(=O)/C1=C/c1c(C)nn(-c2ccccc2)c1O` [compound 66, 4-(5-hydroxy-3-methyl-1-phenyl-1H-pyrazol-4-ylmethylene)-5-methyl-2-phenyl-2,4-dihydro-pyrazol-3-one] to `CC1=NN(c2ccc(F)cc2)C(=O)/C1=C\c1c(C)nn(-c2ccccc2C)c1O` [compound 46, 2-(4-fluoro-phenyl)-4-(5-hydroxy-3-methyl-1-o-toluyl-1H-pyrazol-4-ylmethylene)-5-methyl-2,4-dihydro-pyrazol-3-one], the “Pentosidine Formation Ratio (%) at 5 mM Drug Concentration” value rises from 15.17% to 15.69%.

Going from `CCOC(=O)c1ccc(N2N=C(C(F)(F)F)/C(=C/c3cccs3)C2=O)cc1` [compound 50, 4-(5-oxo-4-thiophen-2-ylmethylene-3-trifluoromethyl-4,5-dihydro-pyrazol-1-yl)-benzoic acid ethyl ester] to `CC1=NN(c2ccc(S(N)(=O)=O)cc2)C(=O)/C1=C/c1ccc(O)cc1` [compound 49, 4-[4-(4-hydroxy-benzylidene)-3-methyl-5-oxo-4,5-dihydro-pyrazol-1-yl]-benzenesulfonamide], the “Pentosidine Formation Ratio (%) at 5 mM Drug Concentration” value falls from 63.17% to 7.09%.

Going from `CC1=NN(c2ccccc2)C(=O)/C1=C/N(C)C` [compound 65, 4-dimethylaminomethylene-5-methyl-2-phenyl-2,4-dihydro-pyrazol-3-one] to `CC1=NN(c2ccccc2)C(=O)C1CCC(=O)O` (stereo not shown) [compound 7], the “Pentosidine Formation Ratio (%) at 5 mM Drug Concentration” value rises from 62.43% to 64.64%.

First: CC1=NN(c2ccc3ccccc3c2)C(=O)/C1=C/c1ccc(O)cc1 [compound 58]
Second: CC1=NN(c2cccc(Cl)c2)C(=O)/C1=C/c1cc2ccccc2[nH]c1=O [compound 38, 3-[1-(3-chloro-phenyl)-3-methyl-5-oxo-1,5-dihydro-pyrazol-4-ylidenemethyl]-1H-quinolin-2-one]
The “Pentosidine Formation Ratio (%) at 5 mM Drug Concentration” value of the first is lower: 0.07% for the first, 84.95% for the second.

First: CC1=NN(c2ccccc2)C(=O)C12C(c1ccccc1)C21C(=O)N(c2ccccc2)N=C1C (stereo not shown) [compound 30, 4,10-dimethyl-2,8,11-triphenyl-2,3,8,9-tetraza-dispiro[4.0.4.1]undeca-3,9-diene-1,7-dione]
Second: CC1=NN(c2ccccc2)C(=O)C1C1C(=O)N(c2ccccc2)N=C1C (stereo not shown) [compound 17, 5,5′-dimethyl-2,2′-diphenyl-2,4,2′,4′-tetrahydro [4,4′]bipyrazole-3,3′-dione]
The “Pentosidine Formation Ratio (%) at 5 mM Drug Concentration” value of the first is higher: 62.43% for the first, 60.96% for the second.

Compared with `O=C(O)c1cccc(N2N=C(c3ccccc3)/C(=C/c3ccccc3O)C2=O)c1` [compound 37], `O=C(NC1=NN(c2ccccc2)C(=O)C1Sc1nnnn1-c1ccccc1)c1ccccc1` (stereo not shown) [compound 14, N-[5-oxo-1-phenyl-4-(1-phenyl-1H-tetrazol-5-ylsulfanyl)-4,5-dihydro-1H-pyrazol-3-yl]-benzamide] is higher in “Pentosidine Formation Ratio (%) at 5 mM Drug Concentration” value: 0.02% for the first, 61.27% for the second.

For `CC1=NN(c2ccc(F)cc2)C(=O)C1C(c1ccccc1O)c1c(C)nn(-c2ccc(F)cc2)c1O` (stereo not shown) [compound 22, 2-(4-fluoro-phenyl)-4-[[1-(4-fluoro-phenyl)-5-hydroxy-3-methyl-1H-pyrazol-4-yl]-(2-hydroxy-phenyl)-methyl]-5-methyl-2,4-dihydro-pyrazol-3-one], the “Pentosidine Formation Ratio (%) at 5 mM Drug Concentration” value was 2.9%.

same assay, conditions: Table 13; incubated with BSA and arabinose instead of patient plasma

First: CC1=NN(c2cccc(Cl)c2)C(=O)/C1=N/O [compound 73, 2-(3-chloro-phenyl)-5-methyl-2H-pyrazol-3,4-dione-4-oxime]
Second: CC1=NN(c2cccc(Cl)c2)C(=O)/C1=C/c1ccc(O)cc1 [compound 71, 2-(3-chloro-phenyl)-4-(4-hydroxy-benzylidene)-5-methyl-2,4-dihydropyrazol-3-one]
The “Pentosidine Formation Ratio (%) at 5 Concentration” value of the first is higher: 66.42% for the first, 4.63% for the second.

`CCOC(=O)C1=NN(c2ccccc2)/C(=C2\C(=O)N(c3ccccc3)N=C2c2ccccc2)S1` [compound 74] was tested, and the “Pentosidine Formation Ratio (%) at 5 Concentration” value was 87.24%.
